Measurements from patent US12059420B2 (BRISTOL-MYERS SQUIBB COMPANY, priority 2018, dated 2024).
Structures can show the parent of a compound that is named as a salt.

Molecular target: T1, human IDO1 (Homo sapiens, UniProt P14902)
T1 construct: expressed in transfected cells
Test: IDO inhibition assay in HEK293 cells stably expressing human IDO1 (kynurenine production, Ehrlich reagent, absorbance 490 nm)
Format: cell-based
Details: 20 hours incubation with compound, 500 nM reference standard = 100% inhibition, read-out: IDO1 HEK Human IC50
Procedure, shortened: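 Kynurenine output of stably IDO1-transfected HEK293 cells was measured by absorbance at 490 nm after mixing supernatant with 0.2% Ehrlich reagent, following TCA stop (0.2% final, 50° C., 30 min). Cells were incubated 20 hours with compound. Inhibition was scaled between DMSO and 500 nM reference standard.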

T1 sequence (P14902 whole entry): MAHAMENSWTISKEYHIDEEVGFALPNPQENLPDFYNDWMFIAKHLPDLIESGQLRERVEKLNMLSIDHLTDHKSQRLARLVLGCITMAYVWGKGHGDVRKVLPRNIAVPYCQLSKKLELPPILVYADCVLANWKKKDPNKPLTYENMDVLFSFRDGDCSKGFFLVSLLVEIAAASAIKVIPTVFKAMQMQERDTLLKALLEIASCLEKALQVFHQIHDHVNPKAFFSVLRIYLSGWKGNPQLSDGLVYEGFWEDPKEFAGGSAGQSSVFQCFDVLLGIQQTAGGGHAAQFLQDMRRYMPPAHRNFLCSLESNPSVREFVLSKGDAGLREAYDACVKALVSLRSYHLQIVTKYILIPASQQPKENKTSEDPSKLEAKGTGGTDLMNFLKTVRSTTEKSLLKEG

Compound	IC50 [nM]
CC(C)CN(Cc1ccccc1)c1cc(Nc2ccnc3ccnn23)cc(-c2ccccc2-c2nnn[nH]2)n1 [Example 155, 6-(2-(1H-tetrazol-5-yl)phenyl)-N2-benzyl-N2-isobutyl-N4-(pyrazolo[1,5-a]pyrimidin-7-yl)pyridine-2,4-diamine]	131
Cc1ccc(CC(=O)Nc2cc(-c3ccccc3-c3nnn[nH]3)nc(N(Cc3ncccn3)CC(C)C)n2)cc1 [Example 92, N-(6-(2-(1H-tetrazol-5-yl)phenyl)-2-(isobutyl(pyrimidin-2-ylmethyl)amino)pyrimidin-4-yl)-2-(p-tolyl)acetamide]	146
Cc1ccc(CC(=O)Nc2cc(-c3ccccc3-c3nnn[nH]3)nc(N3CCCC(C)C3)c2)cc1 (stereo not shown) [Example 126, N-(2-(2-(1H-tetrazol-5-yl)phenyl)-6-(3-methylpiperidin-1-yl)pyridin-4-yl)-2-(p-tolyl)acetamide]	2000
Cc1cnc(Nc2cc(-c3ccccc3-c3nnn[nH]3)nc(N(Cc3ccccc3)CC(C)C)c2)nc1 [Example 51, 6-(2-(1H-tetrazol-5-yl)phenyl)-N2-benzyl-N2-isobutyl-N4-(5-methylpyrimidin-2-yl)pyridine-2,4-diamine]	60.3
Cc1ccc(CC(=O)Nc2cc(-c3ccccc3-c3nnn[nH]3)nc(N3CCCCCC3)c2)cc1 [Example 127, N-(2-(2-(1H-tetrazol-5-yl)phenyl)-6-(azepan-1-yl)pyridin-4-yl)-2-(p-tolyl)acetamide]	1050
CCCN(Cc1ccccc1)c1cc(NC(=O)Nc2ccc(F)cc2F)cc(-c2ccccc2-c2nnn[nH]2)n1 [Example 71, 1-(2-(2-(1H-tetrazol-5-yl)phenyl)-6-(benzyl(propyl)amino)pyridin-4-yl)-3-(2,4-difluorophenyl)urea, TFA]	32.2
CCCN(Cc1ccccc1)c1cc(NC(=O)Nc2ccccc2F)cc(-c2cc(C)ccc2-c2nnn[nH]2)n1 [Example 88, 1-(2-(benzyl(propyl)amino)-6-(5-methyl-2-(1H-tetrazol-5-yl)phenyl)pyridin-4-yl)-3-(2-fluorophenyl)urea, TFA]	109
CCCN(Cc1ccccc1)c1cc(NC(=O)Cc2ccc(C)cc2)cc(-c2ccccc2C(=O)NS(=O)(=O)C2CC2)n1 [Example 19, 2-(6-(benzyl(propyl)amino)-4-(2-(p-tolyl)acetamido)pyridin-2-yl)-N-(cyclopropylsulfonyl)benzamide]	485
CC(C)CN(Cc1ccccc1)c1cc(Nc2ccc3c(c2)OC(F)(F)O3)cc(-c2ccccc2-c2nnn[nH]2)n1 [Example 182, 6-(2-(1H-tetrazol-5-yl)phenyl)-N2-benzyl-N4-(2,2-difluorobenzo[d][1,3]dioxol-5-yl)-N2-isobutylpyridine-2,4-diamine]	9.5
CC(C)CN(Cc1ccccc1)c1cc(Nc2nccc(N3CCOCC3)n2)cc(-c2ccccc2-c2nnn[nH]2)n1 [Example 53, 6-(2-(1H-tetrazol-5-yl)phenyl)-N2-benzyl-N2-isobutyl-N4-(4-morpholinopyrimidin-2-yl)pyridine-2,4-diamine, TFA]	4.9
1-(2-(2-(1H-tetrazol-5-yl)phenyl)-6- (benzyl(propyl)amino)pyridin-4-yl)-3-(4- ethoxyphenyl)urea [Example 272]	129
Cc1ncccc1Nc1cc(-c2ccccc2-c2nnn[nH]2)nc(N(Cc2ccc(F)cc2)CC(C)C)c1 [Example 45, 6-(2-(1H-tetrazol-5-yl)phenyl)-N2-(4-fluorobenzyl)-N2-isobutyl-N4-(2-methylpyridin-3-yl)pyridine-2,4-diamine, TFA]	239
CCCN(Cc1ccccc1)c1cc(NC(=O)Cc2ccc(C)cc2)cc(-c2ccccc2S(=O)(=O)NC(C)=O)n1 [Example 34, N-(2-(2-(N-acetylsulfamoyl)phenyl)-6-(benzyl(propyl)amino)pyridin-4-yl)-2-(p-tolyl) acetamide]	237
Cc1ccc(CC(=O)Nc2cc(-c3ccccc3-c3nnn[nH]3)nc(N3CCCC3C)c2)cc1 (stereo not shown) [Example 128, N-(2-(2-(1H-tetrazol-5-yl)phenyl)-6-(2-methylpyrrolidin-1-yl)pyridin-4-yl)-2-(p-tolyl)acetamide]	1800
CC(C)CN(Cc1ccccc1)c1cc(Nc2ncnc3[nH]ccc23)cc(-c2ccccc2-c2nnn[nH]2)n1 [Example 173, 6-(2-(1H-tetrazol-5-yl)phenyl)-N2-benzyl-N2-isobutyl-N4-(7H-pyrrolo[2,3-d]pyrimidin-4-yl)pyridine-2,4-diamine]	259
CC(C)CN(Cc1ccccc1)c1cc(Nc2ncc(C(C)C)cn2)cc(-c2ccccc2-c2nnn[nH]2)n1 [Example 158, 6-(2-(1H-tetrazol-5-yl)phenyl)-N2-benzyl-N2-isobutyl-N4-(5-isopropylpyrimidin-2-yl)pyridine-2,4-diamine]	444
CCCN(CC1CC1)c1nc(NC(=O)Nc2ccc(OC(F)(F)F)cc2)cc(-c2ccccc2-c2nnn[nH]2)n1 [Example 67, 1-(6-(2-(1H-tetrazol-5-yl)phenyl)-2-((cyclopropylmethyl) (propyl)amino)pyrimidin-4-yl)-3-(4-(trifluoromethoxy)phenyl)urea]	2470
CC(C)CN(Cc1ccccc1)c1cc(Nc2cccc(C(F)F)c2)cc(-c2ccccc2-c2nnn[nH]2)n1 [Example 191, 6-(2-(1H-tetrazol-5-yl)phenyl)-N2-benzyl-N4-(3-(difluoromethyl)phenyl)-N2-isobutylpyridine-2,4-diamine]	26.4
COc1ccc(Nc2cc(-c3ccccc3-c3nnn[nH]3)nc(N(Cc3ccccc3)CC(C)C)c2)c(F)c1 [Example 186, 6-(2-(1H-tetrazol-5-yl)phenyl)-N2-benzyl-N4-(2-fluoro-4-methoxyphenyl)-N2-isobutylpyridine-2,4-diamine]	3.5
Cc1ccc(Nc2cc(-c3ccccc3-c3nnn[nH]3)nc(N(Cc3ccccc3)CC(C)C)c2)cc1 [Example 148, 6-(2-(1H-tetrazol-5-yl)phenyl)-N2-benzyl-N2-isobutyl-N4-(p-tolyl)pyridine-2,4-diamine]	4.8

Results, then the compound that gave them:

IC50 [nM]	Compound
43.3	CCCN(Cc1ccccc1)c1cc(NC(=O)Nc2ccc(C(F)(F)F)cc2F)cc(-c2ccccc2-c2nnn[nH]2)n1 [Example 265, 1-(2-(2-(1H-tetrazol-5-yl)phenyl)-6-(benzyl(propyl)amino)pyridin-4-yl)-3-(2-fluoro-4-(trifluoromethyl)phenyl)urea]
59.8	CCCN(Cc1ccccc1)c1cc(NC(=O)Cc2cccc(OC(F)(F)F)c2)cc(-c2ccccc2-c2nn[nH]n2)n1 [Example 219]
478	CCN(Cc1ccccc1)c1cc(NC(=O)Nc2ccc3c(c2)OCO3)cc(-c2ccccc2-c2nnn[nH]2)n1 [Example 278]
38.9	CCCN(Cc1ccccc1)c1cc(NC(=O)N(C)c2ccc(C(F)(F)F)cc2)cc(-c2ccccc2-c2nnn[nH]2)n1 [Example 298]
26.3	CC(C)CN(Cc1ccccc1)c1cc(NC(=O)Nc2ccc(Cl)cc2Cl)cc(-c2ccccc2-c2nnn[nH]2)n1 [Example 238, 1-(2-(2-(1H-tetrazol-5-yl)phenyl)-6-(benzyl(isobutyl)amino)pyridin-4-yl)-3-(2,4-dichlorophenyl)urea]
102	CCCN(Cc1ccccc1)c1cc(NC(=O)Cc2ccc(C)cc2)cc(-c2cc(C)ccc2-c2nnn[nH]2)n1 [Example 303, N-(2-(Benzyl(propyl)amino)-6-(5-methyl-2-(1H-tetrazol-5-yl)phenyl)pyridin-4-yl)-2-(p-tolyl)acetamide]
1640	CCCN(Cc1ccccc1)c1cc(NC(=O)Nc2ccccc2F)cc(-c2cc(F)ccc2C(=O)O)n1 [Example 261, 2-(6-(benzyl(propyl)amino)-4-(3-(2-fluorophenyl)ureido)pyridin-2-yl)-4-fluorobenzoic acid]
270	CCCN(Cc1ccccc1)c1cc(NC(=O)Nc2cc(C)on2)cc(-c2ccccc2-c2nnn[nH]2)n1 [Example 297]
980	CCCN(c1cc(NC(=O)Nc2ccc(C)cc2)cc(-c2cc(F)ccc2C(=O)O)n1)C1CCCCC1 [Example 256]
3730	CCCN(Cc1ccccc1)c1cc(NC(=O)CC2CCOCC2)cc(-c2ccccc2-c2nnn[nH]2)n1 [Example 295]
1620	CCN(Cc1ccccc1)c1cc(NC(=O)Cc2cccnc2)cc(-c2ccccc2-c2nnn[nH]2)n1 [Example 284]
46.3	CCCN(Cc1ccccc1)c1cc(NC(=O)Nc2ccc(OC(F)F)cc2)cc(-c2ccccc2-c2nnn[nH]2)n1 [Example 271, 1-(2-(2-(1H-tetrazol-5-yl)phenyl)-6-(benzyl(propyl)amino)pyridin-4-yl)-3-(4-(difluoromethoxy)phenyl)urea]
155	CCCN(Cc1ccccc1)c1cc(NC(=O)Nc2ccc3c(c2)OCO3)cc(-c2ccccc2-c2nnn[nH]2)n1 [Example 288, 1-(2-(2-(1H-Tetrazol-5-yl)phenyl)-6-(benzyl(propyl)amino)pyridin-4-yl)-3-(benzo[d][1,3]dioxol-5-yl)urea]
13.7	CCN(Cc1ccccc1)c1cc(NC(=O)Nc2ccc(Cl)cc2Cl)cc(-c2ccccc2-c2nnn[nH]2)n1 [Example 281]
1800	CCCCNC(=O)Nc1cc(-c2ccccc2-c2nnn[nH]2)nc(N(CCC)Cc2ccccc2)c1 [Example 264, 1-(2-(2-(1H-tetrazol-5-yl)phenyl)-6-(benzyl(propyl)amino)pyridin-4-yl)-3-butylurea]
109	CCC(CC(=O)O)c1cc(NC(=O)Nc2ccc(C)cc2)cc(N(Cc2ccccc2)CC(C)C)n1 (single isomer, unassigned) [Example 244, 3-(6-(benzyl(isobutyl)amino)-4-(3-(p-tolyl)ureido)pyridin-2-yl)pentanoic acid]
19.8	CC(C)CN(Cc1ccccc1)c1cc(Nc2cccc(C(F)F)n2)cc(-c2ccccc2-c2nnn[nH]2)n1 [Example 195, 6-(2-(1H-tetrazol-5-yl)phenyl)-N2-benzyl-N4-(6-(difluoromethyl)pyridin-2-yl)-N2-isobutylpyridine-2,4-diamine]
